According to US6737383B1, “Herbicidal oxadiazolidines” (priority 1999, dated 2004):

Tests used:
[1] = tested on: sugar beet; experiment: Test B pre/postemergence sugar beet; assay type: in vivo, Beta vulgaris; details: for Sugarbeets plant response rating (0 to 10 scale): 0 is no effect
Summary of the method: (§1)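 Response is a visual 0-to-10 score relative to untreated plants, where 0 means no effect and 10 means complete control, taken twelve to sixteen days after application. Treatments went onto soil at planting and onto foliage of 1- to 4-leaf plants, using a surfactant-containing non-phytotoxic solvent.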

[2] = tested on: rice; experiment: Test B flood test rice; assay type: in vivo, Oryza sativa; details: for Plant response rating, Rice (0 to 10 scale, 0 is no effect, 10 is complete control) / Rice plant response rating (0 to 10 scale, 0 is no effect, 10 is complete control): visual evaluation after twelve to sixteen days; for Rice plant response rating (0 to 10 scale, 0 is no effect, 10 is complete control): under heading Pre-emergence
Summary of the method: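 Read-out is a visual response score from 0 (no effect) to 10 (complete control), assigned by comparison with untreated controls. Treatment was applied at the 2-leaf stage, and plants stayed in the greenhouse for twelve to sixteen days before scoring.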

[3] = tested on: corn; experiment: Test B pre/postemergence corn; assay type: in vivo, Zea mays; details: for Corn plant response rating (0 to 10 scale): 0 is no effect
Summary of the method: as §1

[4] = tested on: crabgrass; experiment: Test B pre/postemergence crabgrass; assay type: in vivo, Digitaria sanguinalis; details: for Crabgrass plant response rating (0 to 10 scale): 0 is no effect
Summary of the method: as §1

[5] = Preemergence, Rate 62 g/ha, scale of 0 to 10 where 0 is no effect and 10 is complete control
[6] = Preemergence, Rate 125 g/ha, 10 is complete control
[7] = Preemergence, Rate 250 g/ha, scale 0 to 10, 0 is no effect, 10 is complete control
[8] = Preemergence, Rate 500 g/ha, scale of 0 to 10 where 0 is no effect and 10 is complete control
[9] = Rate 62 g/ha, Postemergence, scale of 0 to 10 where 0 is no effect and 10 is complete control
[10] = Rate 125 g/ha, Postemergence, scale 0 to 10
[11] = Rate 500 g/ha, Postemergence, scale 0 to 10
[12] = Postemergence, Rate 250 g/ha, scale 0 to 10
[13] = Preemergence, Rate 125 g/ha, scale of 0 to 10 where 0 is no effect and 10 is complete control
[14] = Preemergence, Rate 500 g/ha, scale 0 to 10, 0 is no effect, 10 is complete control
[15] = Rate 62 g/ha, Postemergence, scale 0 to 10, 0 no effect, 10 complete control
[16] = Rate 125 g/ha, Postemergence, scale 0 to 10, 0 is no effect, 10 is complete control
[17] = Rate 62 g/ha, flood test species, Pre-emergence
[18] = Rate 125 g/ha, flood test species
[19] = Rate 250 g/ha, Pre-emergence (flood test species), scale 0 to 10, 0 is no effect, 10 is complete control
[20] = Postemergence, Rate 500 g/ha, scale of 0 to 10 where 0 is no effect and 10 is complete control
[21] = Postemergence, Rate 62 g/ha, scale 0 to 10, 0 is no effect, 10 is complete control
[22] = Postemergence, Rate 125 g/ha, scale of 0 to 10 where 0 is no effect and 10 is complete control
[23] = Postemergence, Rate 250 g/ha, scale of 0 to 10, 0 is no effect, 10 is complete control
[24] = Preemergence, Rate 62 g/ha, scale 0 to 10 (0 no effect, 10 complete control)
[25] = Preemergence, Rate 250 g/ha, scale 0 to 10 (0 no effect, 10 complete control)
[26] = Preemergence, Rate 500 g/ha, scale 0 to 10 (0 no effect, 10 complete control)
[27] = Rate 250 g/ha, Postemergence, scale 0 to 10, 0 is no effect, 10 is complete control

Compound: Cc1nc(C)c(-n2c(=O)on(C(=O)N(c3ccc(Cl)cc3)C(C)C)c2=O)s1 [Compound 196]
- Sugarbeets plant response rating [1, 5]: 0
- Sugarbeets plant response rating (0 to 10 scale) [1, 6]: 0
- Sugarbeets plant response rating [1, 7]: 0
- Plant response rating, Sugarbeets [1, 8]: 0
- Sugarbeets plant response rating [1, 9]: 0
- Sugarbeets plant response rating [1, 10]: 0
- Plant response rating (0 to 10; 0 is no effect, 10 is complete control), Sugarbeets ([1]; Rate 250 g/ha, Postemergence): 0
- Sugarbeets plant response rating [1, 11]: 0
- Rice plant response rating ([2]; Rate 31 g/ha, Pre-emergence section (flood test species), scale 0 to 10): 0
- Rice plant response rating ([2]; Rate 62 g/ha, headed Pre-emergence (flood test species), scale 0 to 10 (0 no effect, 10 complete control)): 0
- Rice plant response rating ([2]; Rate 125 g/ha, Pre-emergence, flood test species, scale 0 to 10 where 0 is no effect and 10 is complete control): 0
- Rice plant response rating ([2]; Rate 250 g/ha, Pre-emergence, flood-test species, scale 0 to 10, 0 is no effect, 10 is complete control): 0
- Plant response rating, Rice ([2]; Rate 500 g/ha, headed Pre-emergence (flood test species), scale 0 to 10 (0 no effect, 10 complete control)): 0
- Corn plant response rating [3, 5]: 0
- Corn plant response rating (0 to 10 scale) [3, 6]: 0
- Corn plant response rating [3, 7]: 0
- Plant response rating, Corn [3, 8]: 0
- Corn plant response rating [3, 9]: 0
- Corn plant response rating [3, 10]: 0
- Plant response rating (0 to 10; 0 is no effect, 10 is complete control), Corn ([3]; Rate 250 g/ha, Postemergence): 0
- Corn plant response rating [3, 11]: 0
- Crabgrass plant response rating [4, 5]: 0
- Crabgrass plant response rating (0 to 10 scale) [4, 6]: 0
- Crabgrass plant response rating [4, 7]: 0
- Plant response rating, Crabgrass [4, 8]: 0
- Crabgrass plant response rating [4, 9]: 0
- Crabgrass plant response rating [4, 10]: 0
- Plant response rating (0 to 10; 0 is no effect, 10 is complete control), Crabgrass ([4]; Rate 250 g/ha, Postemergence): 0
- Crabgrass plant response rating [4, 11]: 0

Compound: C=CC(OC)n1c(=O)on(C(=O)N(c2ccc(F)cc2)C(C)C)c1=O (stereo not shown) [Compound 452]
- Sugarbeets plant response rating [1, 12]: 0
- Plant response rating, Sugarbeets [1, 5]: 0
- Plant response rating, Sugarbeets [1, 13]: 0
- Sugarbeets plant response rating [1, 7]: 0
- Sugarbeets plant response rating [1, 14]: 0
- Sugarbeets plant response rating [1, 15]: 0
- Sugarbeets plant response rating [1, 16]: 0
- Plant response rating, Rice (0 to 10 scale, 0 is no effect, 10 is complete control) [2, 17]: 0
- Rice plant response rating (0 to 10 scale, 0 is no effect, 10 is complete control) [2, 18]: 0
- Rice plant response rating [2, 19]: 0
- Rice plant response rating ([2]; Rate 500 g/ha, Pre-emergence, flood test species, scale 0 to 10 (0 no effect, 10 complete control)): 0
- Corn plant response rating [3, 12]: 0
- Corn plant response rating [3, 20]: 0
- Plant response rating, Corn [3, 5]: 0
- Plant response rating, Corn [3, 13]: 0
- Corn plant response rating [3, 7]: 0
- Corn plant response rating [3, 14]: 0
- Corn plant response rating [3, 15]: 0
- Corn plant response rating [3, 16]: 0
- Crabgrass plant response rating [4, 12]: 6
- Crabgrass plant response rating [4, 20]: 6
- Plant response rating, Crabgrass [4, 5]: 5
- Plant response rating, Crabgrass [4, 13]: 5
- Crabgrass plant response rating [4, 7]: 5
- Crabgrass plant response rating [4, 14]: 5
- Crabgrass plant response rating [4, 15]: 3

Compound: CCOC(Cn1c(=O)on(C(=O)N(c2ccc(Cl)cc2)C(C)C)c1=O)OCC [Compound 633]
- Plant response rating, Sugarbeets [1, 21]: 0
- Plant response rating, Sugarbeets [1, 22]: 0
- Sugarbeets plant response rating [1, 23]: 0
- Sugarbeets plant response rating [1, 24]: 0
- Sugarbeets plant response rating [1, 13]: 0
- Plant response rating, Sugarbeets [1, 25]: 0
- Plant response rating, Sugarbeets [1, 8]: 0
- Plant response rating, Rice (0 to 10 scale, 0 is no effect, 10 is complete control) [2, 17]: 0
- Rice plant response rating (0 to 10 scale, 0 is no effect, 10 is complete control) [2, 18]: 0
- Rice plant response rating [2, 19]: 0
- Rice plant response rating ([2]; Rate 500 g/ha, Pre-emergence section of Table B, 0 to 10 scale (0 no effect, 10 complete control)): 0
- Plant response rating, Corn [3, 21]: 0
- Plant response rating, Corn [3, 22]: 0
- Corn plant response rating [3, 23]: 0
- Plant response rating, Corn [3, 20]: 0
- Corn plant response rating [3, 24]: 0
- Corn plant response rating [3, 13]: 0
- Plant response rating, Corn [3, 25]: 0
- Plant response rating, Corn [3, 8]: 2
- Plant response rating, Crabgrass [4, 21]: 0
- Plant response rating, Crabgrass [4, 22]: 0
- Crabgrass plant response rating [4, 23]: 3
- Plant response rating, Crabgrass [4, 20]: 9
- Crabgrass plant response rating [4, 24]: 5
- Crabgrass plant response rating [4, 13]: 8
- Plant response rating, Crabgrass [4, 25]: 9
- Plant response rating, Crabgrass [4, 8]: 9

Compound: C=C[Si](C)(C)Cn1c(=O)on(C(=O)N(c2ccc(Cl)cc2)C(C)C)c1=O [Compound 425]
- Sugarbeets plant response rating [1, 12]: 3
- Sugarbeets plant response rating [1, 20]: 4
- Plant response rating, Sugarbeets [1, 24]: 0
- Plant response rating, Sugarbeets [1, 13]: 0
- Sugarbeets plant response rating [1, 7]: 2
- Sugarbeets plant response rating [1, 14]: 2
- Sugarbeets plant response rating [1, 16]: 2
- Rice plant response rating ([2]; Postemergence block (flood test species), Rate 250 g/ha, scale 0 to 10): 0
- Rice plant response rating ([2]; Postemergence section (flood test species), Rate 500 g/ha, scale of 0 to 10 where 0 is no effect and 10 is complete control): 0
- Rice plant response rating ([2]; Rate 125 g/ha, Postemergence section (flood test species), scale 0 to 10, 0 is no effect, 10 is complete control): 0
- Corn plant response rating [3, 12]: 0
- Corn plant response rating [3, 20]: 2
- Plant response rating, Corn [3, 24]: 0
- Plant response rating, Corn [3, 13]: 0
- Corn plant response rating [3, 7]: 0
- Corn plant response rating [3, 14]: 9
- Corn plant response rating [3, 9]: 0
- Corn plant response rating [3, 16]: 0
- Crabgrass plant response rating [4, 12]: 8
- Crabgrass plant response rating [4, 20]: 9
- Plant response rating, Crabgrass [4, 24]: 9
- Plant response rating, Crabgrass [4, 13]: 10
- Crabgrass plant response rating [4, 7]: 10
- Crabgrass plant response rating [4, 14]: 10
- Crabgrass plant response rating [4, 9]: 4
- Crabgrass plant response rating [4, 16]: 7

Compound: CC(C)N(C(=O)n1oc(=O)[nH]c1=O)c1ccc(F)cc1 [Compound 164]
- Sugarbeets plant response rating [1, 22]: 0
- Sugarbeets plant response rating [1, 5]: 0
- Sugarbeets plant response rating (0 to 10 scale) [1, 6]: 0
- Sugarbeets plant response rating [1, 7]: 0
- Sugarbeets plant response rating [1, 26]: 0
- Sugarbeets plant response rating [1, 9]: 0
- Plant response rating, Sugarbeets [1, 27]: 0
- Sugarbeets plant response rating [1, 11]: 0
- Rice plant response rating ([2]; Postemergence (flood test species), Rate 125 g/ha, scale of 0 to 10 where 0 is no effect and 10 is complete control): 0
- Rice plant response rating ([2]; Rate 62 g/ha, Postemergence section, flood test species, scale of 0 to 10 where 0 is no effect and 10 is complete control): 0
- Plant response rating, Rice ([2]; Rate 250 g/ha, Postemergence (flood test), scale 0 to 10, 0 is no effect, 10 is complete control): 0
- Rice plant response rating ([2]; Rate 500 g/ha, listed under Postemergence (flood test species), scale 0 to 10): 0
- Corn plant response rating [3, 22]: 0
- Corn plant response rating [3, 5]: 0
- Corn plant response rating (0 to 10 scale) [3, 6]: 0
- Corn plant response rating [3, 7]: 0
- Corn plant response rating [3, 26]: 0
- Corn plant response rating [3, 9]: 0
- Plant response rating, Corn [3, 27]: 0
- Corn plant response rating [3, 11]: 0
- Crabgrass plant response rating [4, 22]: 0
- Crabgrass plant response rating [4, 5]: 0
- Crabgrass plant response rating (0 to 10 scale) [4, 6]: 0
- Crabgrass plant response rating [4, 7]: 0
- Crabgrass plant response rating [4, 26]: 4
- Crabgrass plant response rating [4, 9]: 0
- Plant response rating, Crabgrass [4, 27]: 2
- Crabgrass plant response rating [4, 11]: 9
